The test system of assay [1] is H3K27me3 in WSU-DLCL2 cells. In words: WSU-DLCL2 methylation assay (H3K27me3 ELISA). In kind it is cell-based. Particulars: Homo sapiens, WSUDLCL2, Table 3B, 96 hours, read-out: ELISA H3K27me3 IC50. (An ELISA detects its analyte on a solid surface through an enzyme-linked reagent.)
Source text: WSU-DLCL2 suspension cells were purchased from DSMZ (German Collection of Microorganisms and Cell Cultures, Braunschweig, Germany). RPMI/Glutamax Medium, Penicillin-Streptomycin, Heat Inactivated Fetal Bovine Serum, and D-PBS were purchased from Life Technologies, Grand Island, N.Y., USA. Extraction Buffer and Neutralization Buffer (5×) were purchased from Active Motif, Carlsbad, Calif., USA. Rabbit anti-Histone H3 antibody was purchased from Abcam, Cambridge, Mass., USA. Rabbit anti-H3K27me3 and HRP-conjugated anti-rabbit-IgG were purchased from Cell Signaling Technology, Danvers, Mass., USA. TMB “Super Sensitive” substrate was sourced from BioFX Laboratories, Owings Mills, Md., USA. IgG-free Bovine Serum Albumin was purchased from Jackson ImmunoResearch, West Grove, Pa., USA. PBS with Tween (10×PBST) was purchased from KPL, Gaithersburg, Md., USA. Sulfuric Acid was purchased from Ricca Chemical, Arlington, Tex., USA. Immulon ELISA plates were purchased from Thermo, Rochester, N.Y., USA. V-bottom cell culture plates were purchased from Corning Inc., Corning, N.Y., USA. V-bottom polypropylene plates were purchased from Greiner Bio-One, Monroe, N.C., USA.
WSU-DLCL2 cells were seeded in assay medium at a concentration of 50,000 cells per mL to a 96-well V-bottom cell culture plate with 200 μL per well. […] Plates were incubated on a titer-plate shaker at 37° C., 5% CO2 for 96 hours. After four days of incubation, plates were spun at 241×g for five minutes and medium was aspirated gently from each well of cell plate without disturbing cell pellet. Pellet was resuspended in 200 μL DPBS and plates were spun again at 241×g for five minutes. The supernatant was aspirated and cold (4° C.) Extraction buffer (100 μL) was added per well. Plates were incubated at 4° C. on orbital shaker for two hours. […] Supernatant (80 μL per well) was transferred to its respective well in 96 well V-bottom polypropylene plate. Neutralization Buffer 5× (20 μL per well) was added to V-bottom polypropylene plate containing supernatant. V-bottom polypropylene plates containing crude histone preparation (CHP) were incubated on orbital shaker×five minutes. Crude Histone Preparations were added (2 μL per well) to each respective well into duplicate 96 well ELISA plates containing 100 μL Coating Buffer (1×PBS+BSA 0.05% w/v). Plates were sealed and incubated overnight at 4° C. The following day, plates were washed three times with 300 μL per well 1×PBST. […] For H3K27me3 detection, 100 μL of HRP conjugated anti-rabbit IgG antibody diluted to 1:4000 in ELISA diluent was added per well. Plates were incubated at room temperature for 90 minutes. […] TMB substrate 100 μL was added per well. Histone H3 plates were incubated for five minutes at room temperature. H3K27me3 plates were incubated for 10 minutes at room temperature. The reaction was stopped with sulfuric acid 1N (100 μL per well). Absorbance for each plate was read at 450 nm.
Each plate included eight control wells of DMSO only treatment (Minimum Inhibition) as well as eight control wells for maximum inhibition (Background wells).
The average of the ratio values for each control type was calculated and used to determine the percent inhibition for each test well in the plate. […] Percent inhibition was determined and IC50 curves were generated using duplicate wells per concentration of compound.
For another assay, the system named is WSU-DLCL2 cells. In words: Cell proliferation analysis (WSU-DLCL2, Cell Titer Glo). In kind it is cell-based. Particulars: Homo sapiens, WSUDLCL2, Table 3B, 6 days, read-out: WSU proliferation IC50.
The target in assay [2] is wild-type EZH2 (PRC2 complex) (Homo sapiens (Human), UniProt Q15910). In words: PRC2 enzyme assay on peptide substrates (wild-type EZH2). Particulars: read-out: WT EZH2 IC50; Table 3B; wild-type PRC2 enzyme, peptide substrate.
Sequence of wild-type EZH2 (PRC2 complex) (Q15910 other isoform, or with tags, fused parts or gaps): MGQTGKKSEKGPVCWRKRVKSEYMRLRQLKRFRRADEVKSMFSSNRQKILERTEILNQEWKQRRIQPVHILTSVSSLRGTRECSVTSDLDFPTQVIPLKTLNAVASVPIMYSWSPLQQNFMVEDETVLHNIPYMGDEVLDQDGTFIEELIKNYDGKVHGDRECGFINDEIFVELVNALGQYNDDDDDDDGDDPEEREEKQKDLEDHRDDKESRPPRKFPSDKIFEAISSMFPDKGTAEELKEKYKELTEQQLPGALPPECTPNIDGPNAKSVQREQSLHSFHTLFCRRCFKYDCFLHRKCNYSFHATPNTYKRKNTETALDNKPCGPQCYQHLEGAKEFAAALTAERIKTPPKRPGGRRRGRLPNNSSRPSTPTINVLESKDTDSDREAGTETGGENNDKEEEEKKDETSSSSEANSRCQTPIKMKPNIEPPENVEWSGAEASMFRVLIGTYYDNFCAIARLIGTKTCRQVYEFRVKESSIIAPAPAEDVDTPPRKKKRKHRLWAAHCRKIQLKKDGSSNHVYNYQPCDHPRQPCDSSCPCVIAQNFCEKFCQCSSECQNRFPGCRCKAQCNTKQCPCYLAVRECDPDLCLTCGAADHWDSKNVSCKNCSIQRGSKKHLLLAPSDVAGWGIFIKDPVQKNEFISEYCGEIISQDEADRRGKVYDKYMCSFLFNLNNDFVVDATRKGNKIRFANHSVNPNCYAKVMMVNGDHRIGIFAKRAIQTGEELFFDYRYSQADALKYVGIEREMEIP
Sequence of wild-type EZH2 (PRC2 complex) (O75530 whole entry partner): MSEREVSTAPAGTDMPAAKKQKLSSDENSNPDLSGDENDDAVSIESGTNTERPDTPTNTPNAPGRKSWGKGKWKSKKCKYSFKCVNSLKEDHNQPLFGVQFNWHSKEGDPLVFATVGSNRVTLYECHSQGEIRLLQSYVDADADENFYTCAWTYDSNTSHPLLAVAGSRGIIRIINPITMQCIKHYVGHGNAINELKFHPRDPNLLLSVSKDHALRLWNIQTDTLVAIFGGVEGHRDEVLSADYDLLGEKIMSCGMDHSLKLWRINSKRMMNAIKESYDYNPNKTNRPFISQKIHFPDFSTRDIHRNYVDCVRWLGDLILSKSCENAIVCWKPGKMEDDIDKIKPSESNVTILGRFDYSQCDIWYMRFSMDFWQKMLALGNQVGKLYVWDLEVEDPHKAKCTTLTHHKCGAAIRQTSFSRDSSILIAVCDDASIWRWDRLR
Sequence of wild-type EZH2 (PRC2 complex) (Q15022 whole entry partner): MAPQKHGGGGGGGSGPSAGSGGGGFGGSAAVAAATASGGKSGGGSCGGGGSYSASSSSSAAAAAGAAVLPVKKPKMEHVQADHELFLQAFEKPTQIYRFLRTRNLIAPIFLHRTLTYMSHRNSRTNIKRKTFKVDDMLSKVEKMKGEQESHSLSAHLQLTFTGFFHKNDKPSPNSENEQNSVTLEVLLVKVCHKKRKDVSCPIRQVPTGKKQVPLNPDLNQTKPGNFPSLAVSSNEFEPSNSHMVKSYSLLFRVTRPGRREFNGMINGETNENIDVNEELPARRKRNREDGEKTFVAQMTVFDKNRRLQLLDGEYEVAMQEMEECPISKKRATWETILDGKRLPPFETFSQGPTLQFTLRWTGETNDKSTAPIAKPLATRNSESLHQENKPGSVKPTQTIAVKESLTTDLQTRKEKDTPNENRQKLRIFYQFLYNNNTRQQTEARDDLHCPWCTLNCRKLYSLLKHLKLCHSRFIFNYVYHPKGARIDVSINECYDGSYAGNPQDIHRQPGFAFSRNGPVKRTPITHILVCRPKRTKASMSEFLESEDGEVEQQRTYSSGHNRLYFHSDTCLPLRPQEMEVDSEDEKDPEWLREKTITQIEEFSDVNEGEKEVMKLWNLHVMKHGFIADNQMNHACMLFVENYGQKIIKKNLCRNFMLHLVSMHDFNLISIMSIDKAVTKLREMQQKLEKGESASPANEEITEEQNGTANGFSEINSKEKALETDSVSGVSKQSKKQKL
Sequence of wild-type EZH2 (PRC2 complex) (Q09028 whole entry partner): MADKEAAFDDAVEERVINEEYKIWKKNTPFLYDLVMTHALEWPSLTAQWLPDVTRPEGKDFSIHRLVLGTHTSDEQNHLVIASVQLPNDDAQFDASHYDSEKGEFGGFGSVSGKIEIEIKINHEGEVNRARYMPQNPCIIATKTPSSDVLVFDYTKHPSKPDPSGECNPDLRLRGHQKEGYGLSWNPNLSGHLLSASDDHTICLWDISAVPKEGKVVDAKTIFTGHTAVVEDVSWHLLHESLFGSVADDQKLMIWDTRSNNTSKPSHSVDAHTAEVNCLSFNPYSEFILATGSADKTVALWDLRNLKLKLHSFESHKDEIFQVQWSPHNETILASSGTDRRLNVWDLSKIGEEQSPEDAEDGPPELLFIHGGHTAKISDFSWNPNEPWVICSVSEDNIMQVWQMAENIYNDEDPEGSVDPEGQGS

On to `CCN(c1cc(F)cc(C(=O)NCc2c(C)cc(C)n(C)c2=O)c1C)C1C[C@@H](C)N[C@H](C)C1` (stereo partly drawn) [Compound 113], for which the IC50 is > 25000 nM in assay [1], > 20000 nM with WSU-DLCL2 cells and 1220 nM in assay [2].

Turning to `CCN(c1cc(F)cc(C(=O)NCc2c(C)c(F)c(C)n(C)c2=O)c1C)C1C[C@@H](C)N[C@H](C)C1` (stereo partly drawn) [Compound 115], the IC50 in assay [1] was > 25000 nM; in the assay with WSU-DLCL2 cells, > 20000 nM; in assay [2], 497 nM.

Consider `CCCc1cc(C)[nH]c(=O)c1CNC(=O)c1cc(F)cc(N(CC)C2C[C@@H](C)N[C@H](C)C2)c1C` (stereo partly drawn) [Compound 116], for which the IC50 in assay [1] is > 25000 nM; with WSU-DLCL2 cells it was 13200 nM; in assay [2] it was 132 nM.

With `CCN(c1cc(F)cc(C(=O)NCc2c(C(C)C)cc(C)[nH]c2=O)c1C)C1C[C@@H](C)N[C@H](C)C1` (stereo partly drawn) [Compound 117], the IC50 in assay [1] is 8960 nM; in the assay with WSU-DLCL2 cells, > 20000 nM; in assay [2], 350 nM.

`CCN(c1cc(F)cc(C(=O)NCc2c(C)cc(C)[nH]c2=O)c1C)C1C[C@@H](C)N(C)[C@H](C)C1` (stereo partly drawn) [Compound 118]: the IC50 is 11700 nM in assay [1], 3950 nM in the assay on WSU-DLCL2 cells and 36.3 nM in assay [2].

For the compound `CCN(c1cc(F)cc(C(=O)NCc2c(C)cc(C)[nH]c2=O)c1C)C1C[C@@H](C)N(CC)[C@H](C)C1` (stereo partly drawn) [Compound 119], the IC50 in assay [1] is 11300 nM; in the assay with WSU-DLCL2 cells, 3380 nM; in assay [2] it was 18.5 nM.

For the compound `CCN(c1cc(-c2ccc(OC)nc2)cc(C(=O)NCc2c(C)cc(C)[nH]c2=O)c1C)C1C[C@@H](C)N[C@H](C)C1` (stereo partly drawn) [Compound 120], the IC50 in assay [1] was 1430 nM; in the assay with WSU-DLCL2 cells it was 1380 nM; in assay [2], < 10 nM.

`CCN(c1cc(-c2ccc(CN3CCOCC3)nc2)cc(C(=O)NCc2c(C)cc(C)[nH]c2=O)c1C)C1C[C@@H](C)N[C@H](C)C1` (stereo partly drawn) [Compound 121]: the IC50 in assay [1] was 13900 nM; in the assay with WSU-DLCL2 cells, 3830 nM; in assay [2], < 10 nM.

As to `CCN(c1cc(-c2ccc(CN3CCN(C)CC3)nc2)cc(C(=O)NCc2c(C)cc(C)[nH]c2=O)c1C)C1C[C@@H](C)N[C@H](C)C1` (stereo partly drawn) [Compound 122], the values for the IC50 (in assay [1]; in the assay on WSU-DLCL2 cells; in assay [2]) were > 25000 nM, 7560 nM and < 10 nM, respectively.

In the case of `CCN(c1cc(-c2ccc(CN3CCNCC3)nc2)cc(C(=O)NCc2c(C)cc(C)[nH]c2=O)c1C)C1C[C@@H](C)N[C@H](C)C1` (stereo partly drawn) [Compound 123], the IC50 was > 25000 nM in assay [1], 7900 nM in the assay with WSU-DLCL2 cells and < 10 nM in assay [2].

`CCN(c1cc(-c2cnc(OC)cn2)cc(C(=O)NCc2c(C(C)C)cc(C)[nH]c2=O)c1C)C1CCOCC1` [Compound 126]: the values for the IC50 (in assay [1]; in the assay on WSU-DLCL2 cells; in assay [2]) were 2030 nM, 906 nM and < 10 nM, respectively.

For `CCN(c1cc(-c2cnc(OC(C)C)cn2)cc(C(=O)NCc2c(C)cc(C)[nH]c2=O)c1C)C1CCOCC1` [Compound 127], the IC50 in assay [1] is 525 nM; with WSU-DLCL2 cells it was 717 nM; in assay [2] it was < 10 nM.

With `CCN(c1cc(-c2cnc(C(F)(F)F)cn2)cc(C(=O)NCc2c(C)cc(C)[nH]c2=O)c1C)C1CCOCC1` [Compound 128], the figures for the IC50 (in assay [1]; with WSU-DLCL2 cells; in assay [2]) were 1550 nM, 975 nM and < 10 nM, respectively.

Turning to `CCN(c1cc(-c2cnc(OC3CN(C)C3)cn2)cc(C(=O)NCc2c(C)cc(C)[nH]c2=O)c1C)C1CCOCC1` [Compound 131], the IC50 in assay [1] was 306 nM; with WSU-DLCL2 cells, 194 nM; in assay [2] it was < 10 nM.

`CCN(c1cc(-c2cnc(OC3CCN(C)CC3)cn2)cc(C(=O)NCc2c(C)cc(C)[nH]c2=O)c1C)C1CCOCC1` [Compound 132]: the IC50 was determined as 177 nM in assay [1], 526 nM in the assay with WSU-DLCL2 cells and 20 nM in assay [2].

`CCN(c1cc(-c2ccc(CN3CCCN(C)CC3)nc2)cc(C(=O)NCc2c(C)cc(C)[nH]c2=O)c1C)[C@H]1CC[C@H](N(C)C)CC1` [Compound 146]: the IC50 in assay [1] is 161 nM; in the assay with WSU-DLCL2 cells it was 217 nM; in assay [2] it was < 10 nM.

Regarding `CCN(c1cc(-c2ccc(CN3CCC[C@H](O)C3)nc2)cc(C(=O)NCc2c(C)cc(C)[nH]c2=O)c1C)[C@H]1CC[C@H](N(C)C)CC1` [Compound 147], the IC50 is 74.3 nM in assay [1], 116 nM in the assay on WSU-DLCL2 cells and < 10 nM in assay [2].

Regarding `CCN(c1cc(-c2ccc(CN3CC[C@H](O)C3)nc2)cc(C(=O)NCc2c(C)cc(C)[nH]c2=O)c1C)[C@H]1CC[C@H](N(C)C)CC1` [Compound 148, N-((4,6-Dimethyl-2-oxo-1,2-dihydropyridin-3-yl)methyl)-3-((4-trans-(dimethylamino)cyclohexyl)(ethyl)amino)-5-(6-(((S)-3-hydroxypyrrolidin-1-yl)methyl)pyridin-3-yl)-2-methylbenzamide], the values for the IC50 (in assay [1]; in the assay on WSU-DLCL2 cells; in assay [2]) were 504 nM, 243 nM and < 10 nM, respectively.

Regarding `CCN(c1cc(-c2cnc(N3CCN(C)CC3)cn2)cc(C(=O)NCc2c(C)cc(C)[nH]c2=O)c1C)[C@H]1CC[C@H](N(C)C)CC1` [Compound 149], the results for the IC50 (in assay [1]; in the assay with WSU-DLCL2 cells; in assay [2]) were 20 nM, 316 nM and < 10 nM, respectively.

For `CCN(c1cc(-c2ccc(CN3CC[C@H](O)C3)nc2)cc(C(=O)NCc2c(C(C)C)cc(C)[nH]c2=O)c1C)[C@H]1CC[C@H](N(C)C)CC1` [Compound 150], the figures for the IC50 (in assay [1]; in the assay with WSU-DLCL2 cells; in assay [2]) were 377 nM, 361 nM and < 10 nM, respectively.

On to `CCN(c1cc(-c2ccc(CN3CC(O)C3)nc2)cc(C(=O)NCc2c(C)cc(C)[nH]c2=O)c1C)[C@H]1CC[C@H](N(C)C)CC1` [Compound 151], for which the IC50 was 618 nM in assay [1], 682 nM in the assay on WSU-DLCL2 cells and < 10 nM in assay [2].

Turning to `CCN(c1cc(-c2ccc(COC)nc2)cc(C(=O)NCc2c(C)cc(C)[nH]c2=O)c1C)[C@H]1CC[C@H](N(C)C)CC1` [Compound 152], the IC50 in assay [1] stood at 60 nM; with WSU-DLCL2 cells it was 412 nM; in assay [2], 18 nM.

In the case of `CCN(c1cc(-c2ccc(C(=O)NCCO)cc2)cc(C(=O)NCc2c(C(C)C)cc(C)[nH]c2=O)c1C)C1CCOCC1` [Compound 156], the IC50 in assay [1] was 684 nM; in the assay with WSU-DLCL2 cells it was 890 nM; in assay [2], < 10 nM.

The values are drawn from patent US11642348B2, “Substituted benzene compounds” (Epizyme, Inc., priority 2012, dated 2023).
